{
  "source": "patent US20250333683A1",
  "about": "“A METHOD AND SYSTEM FOR SIMULATING STEM CELL DIFFERENTIATION DYNAMICS” (CellVoyant Technologies Limited, priority 2024, published 2025)",
  "test_system": "human pluripotent cells (hPCs)",
  "assay": "Observed ground truth mesoderm differentiation (Brachyury immunofluorescence)",
  "type": "cell-based",
  "experimental": "Stem cell differentiation: To differentiate cells into cardiac mesoderm cells, cardiomyocytes and/or endothelial intermediate, protocol described in Giacomelli et al., [1] was adapted.\nBriefly, human pluripotent cells (hPCs) were seeded, as a monolayer culture, into 96-well imaging plate in BPLE basal media for twenty-four hours, with the bovine serum albumin (BSA) polyvinylalcohol essential lipids (BPLE) basal media being supplemented with 20 ng/ml of ActinvinA (Peprotech, 120-14E-2 μG), 20 ng/ml of BMP4 (Peprotech, 120-05ET-2 μG) and varying concentrations of CHIR99201 (Selleckchem, S1263). CHIR99021 was removed randomly after either 24 or 48 hours of differentiation, to determine the effect of CHIR99021 on mesoderm differentiation rates.\nThe day after, the primary antibody was washed out, and the cells were incubated with the fluorescence-conjugated secondary antibody (1:1000) for 1 hour at room temperature. DAPI solution was used to detect nuclei.\nGround truth for fate forecasting was inferred by using Cellpose to segment individual cell nuclei on the DAPI channel. A Multi-Otsu threshold was carried out on the Brachury channel to separate the images into foreground and background. The total number of nucleii detected was recorded and the two sets of masks were correlated to determine the proportion of cells that were positive for the immunofluorescence marker. […]",
  "data": [
    {"smiles": "Cc1c[nH]c(-c2cnc(NCCNc3ccc(C#N)cn3)nc2-c2ccc(Cl)cc2Cl)n1", "note": "[CHIR99021]", "values": [
      {"measurement": "observed ground truth proportion of cells acquiring the mesodermal cell fate", "setting": "CHIR99021 0.93 μM, applied for 24 hours", "value": "very low proportion"},
      {"measurement": "observed ground truth amount of Brachury positive cells after removal of CHIR99021", "setting": "CHIR99021 1.93 μM, removed after 48 hours", "value": "decrease in the amount of Brachury positive cells"}
    ]}
  ]
}
